Where two headings read alike, the source gives them in different places. Blank lines part the entries; values can stand above or below the molecule they belong to.
Experiments:
gastric ulcers in rats = assay: Gastrointestinal effects: induction of ulcers in rats submitted to cold stress; type: in vivo; settings: rat, po; for Maximum non-Ulcerogenic dose: linear regression of dose-response
Procedure: Gastrointestinal Effects (GI): Induction of Ulcers in Rats Submitted to Cold Stress
In this assay possible ulcerogenic effects at a gastrointestinal level were determined after oral administration. […] Firstly the rats received the products under study orally at different doses. After two hours had elapsed the rats were placed in a chest freezer at −15° C. for 1 hour. Afterwards they were left for 1 hour at room temperature The animals were then sacrificed and the stomach extracted. The stomach was kept in saline solution for 15 minutes After this time the percentage of surface area with gastric ulcers was determined using a Project C.S.V. vs 1.2 image analyser for each stomach.

[1] = test system: secondary inflammation of paw (experimental arthritis); assay: Anti-arthritic activity in rat (Freund adjuvant); type: in vivo; settings: 10 mg/kg/day po for 11 days
Procedure: Anti-arthritic Activity in Rat
In this study the anti-arthritic activity in rat of the compound of example 3 has been studied. To do so the method described by B. J. Jaffee et al. (Agents and Actions, 1989, 27, 344-346) was followed. Firstly, the Freund adjuvant was injected (Mycobacterium butiricum suspended in soy-bean oil) through the sub-sole of the back left paw of the rats. After 14 days, when the secondary inflammation had developed in the uninjected paw, which is considered the experimental arthritis, treatment with the product under study or with the vehicle for the control group was started. The compound of example 3 was administered orally at a dose of 10 mg/kg/day for 11 days. The volume of the paw with secondary inflammation in the last days of treatment was measured. The anti-arthritic activity was calculated by comparing the average volume of the paw with secondary inflammation of the group treated with the compound of example 3 and the control group for 5 days.

[2] = test system: COX-1 (PGE2 in gastric mucus); assay: Inhibition of the synthesis of prostaglandins (PGE2) in gastric mucus in rat; type: in vivo; settings: for inhibition at 40 mg/kg: read-out: Inhibition of PGE2, Gastric mucus; for ED50: read-out: ED-50, Inhibition of PGE2, Gastric mucus
Procedure: (§1) Inhibition of the Synthesis of Prostaglandins in Inflammatory Exudate and Mucus Membrane in Rat
(§2) The products under study are administered orally at an initial screening dose of 40 mg/kg One hour after treatment the rats were anaesthetised and a sponge soaked in carrageenan was implanted subcutaneously in the interscapular zone. Six hours after implantation the rats were sacrificed and the interscapular sponges extracted as well as gastric mucuous. Next the PGE2 content was determined by immunoassay for each one of the samples, in the sponge exudate on the one hand and in the gastric mucus on the other.

[3] = test system: COX-2/COX-1 (PGE2 in inflammatory exudate); assay: Inhibition of the synthesis of prostaglandins (PGE2) in inflammatory exudate in rat, carrageenan sponge; type: in vivo; settings: for inhibition at 40 mg/kg: read-out: Inhibition of PGE2, Inflammatory exudate; for ED50: read-out: ED-50, Inhibition of PGE2, Inflammatory exudate
Procedure: as §1, §2

[4] = test system: carrageenan pre-inflamed rat paw; assay: Analgesic activity against hyperalgesia by thermal stimulus of pre-inflamed rat paw; type: in vivo; settings: for % Activity, analgesic activity against hyperalgesia by thermal stimulus: dose 40 mg/kg po, 2 h after treatment; for ED50: po, read-out: ED-50 of analgesic activity against hyperalgesia by thermal stimulus
Procedure: Analgesic Activity Against “Hyperalgesia” by Thermal Stimulus of Pre-inflamed Rat Paw
In this assay the analgesic activity in rat was monitored following the method described by K. Hargreaves et al. (Pain, 1988, 32, 77-78). Firstly, a suspension of carrageenan was injected into the back right paw of each rat. After two hours the products under study were administered orally at a screening dose of 40 mg/kg. Two hours after treatment a heat source was applied to the sole of each back paw of the rats and the time measured that they took to remove the paw measured. Hyperalgesia was determined by comparing the percentage of algesia of the paw injected with carrageenan to the other back paw. The analgesic activity was calculated comparing these hyperalgesia values of the groups treated with product with those of the group treated with the vehicle only.

melting point: 156 to 157 °C
SMILES: COC(=O)C1=NN(c2ccc(S(C)(=O)=O)cc2)C(c2ccc(C)cc2)C1 (centres unmarked) [Example 5, methyl 4,5-dihydro-5-(4-methylphenyl)-1-(4-methylsulphonylphenyl)-1H-pyrazole-3-carboxylate]

melting point: 137 to 140 °C
SMILES: Cc1ccc(C2CC(C(N)=O)=NN2c2ccc(S(N)(=O)=O)cc2)cc1 (centres unmarked) [Example 6, 1-(4-aminosulphonylphenyl)-4,5-dihydro-5-(4-methylphenyl)-1H-pyrazole-3-carboxamide]

melting point: 115 to 119 °C
SMILES: Cc1ccc(C2CC(C#N)=NN2c2ccc(S(C)(=O)=O)cc2)cc1 (centres unmarked) [Example 7, 3-cyano-4,5-dihydro-5-(4-methylphenyl)-1-(4-methylsulphonylphenyl)-1H-pyrazole]

melting point: 154 to 156 °C
SMILES: CC(=O)NS(=O)(=O)c1ccc(N2N=C(C(F)(F)F)CC2c2ccc(F)cc2F)cc1 (centres unmarked) [Example 8, 1-(4-acetylaminosulphonylphenyl)-5-(2,4-difluorophenyl)-4,5-dihydro-3-trifluoromethyl-1H-pyrazole]

melting point: 172 to 176 °C
SMILES: Cc1ccc(C2CC(C(=O)O)=NN2c2ccc(S(N)(=O)=O)cc2)cc1 (centres unmarked) [Example 34, 1-(4-aminosulphonylphenyl)-4,5-dihydro-5-(4-methylphenyl)-1H-pyrazole-3-carboxylic acid]

melting point: 155 to 160 °C
SMILES: COC(=O)C1=NN(c2ccc(S(C)(=O)=O)cc2)C(c2ccc(C)cc2)C1 (centres unmarked) [Example 39, methyl 4,5-dihydro-5-(4-methylphenyl)-1-(4-methylsulphonylphenyl)-1H-pyrazole-3-carboxylate]

melting point: 210 to 215 °C
SMILES: Cc1ccc(C2CC(C(N)=O)=NN2c2ccc(S(N)(=O)=O)cc2)cc1 (centres unmarked) [Example 41, 1-(4-aminosulphonylphenyl)-4,5-dihydro-5-(4-methylphenyl)-1H-pyrazole-3-carboxamide]

melting point: 128 to 132 °C
SMILES: Cc1ccc(C2CC(C(N)=O)=NN2c2ccc(S(C)(=O)=O)cc2)cc1 (centres unmarked) [Example 42, 4,5-dihydro-5-(4-methylphenyl)-1-(4-methylsulphonylphenyl)-1H-pyrazole-3-carboxamide]

melting point: 162 to 164 °C
SMILES: Cc1ccc(C2CC(C#N)=NN2c2ccc(S(C)(=O)=O)cc2)cc1 (centres unmarked) [Example 43, 3-cyano-4,5-dihydro-5-(4-methylphenyl)-1-(4-methylsulphonylphenyl)-1H-pyrazole]

melting point: 172 to 174 °C
SMILES: CC(=O)NS(=O)(=O)c1ccc(N2N=C(C(F)(F)F)CC2c2ccc(F)cc2F)cc1 (centres unmarked) [Example 64, 1-(4-acetylaminosulphonylphenyl)-5-(2,4-difluorophenyl)-4,5-dihydro-3-trifluoromethyl-1H-pyrazole]

The next lines start with the molecule.

SMILES: O=C(O)Cc1ccccc1Nc1c(Cl)cccc1Cl [Dichlophenac]
Ulcerogenic effects (in words) (gastric ulcers in rats; cold stress): exhibited ulcerogenic effects at very low doses
Maximum non-Ulcerogenic dose (gastric ulcers in rats; cold stress): 1.2 mg/kg

SMILES: Cc1ccc(C2CC(C(F)(F)F)=NN2c2ccc(S(N)(=O)=O)cc2)cc1 (centres unmarked) [Example 1, 1-(4-Aminosulphonylphenyl)-4,5-dihydro-5-(4-metylphenyl)-3-trifluoromethyl-1H-pyrazole]
melting point: 140 to 143 °C

SMILES: CC1(c2ccccc2)CC(C(F)(F)F)=NN1c1ccc(S(N)(=O)=O)cc1 (centres unmarked) [Example 2, 1-(4-Aminosulphonylphenyl)-4,5-dihydro-5-phenyl-5-methyl-3-trifluoromethyl-1H-pyrazole]
melting point: 60 to 66 °C

SMILES: NS(=O)(=O)c1ccc(N2N=C(C(F)(F)F)CC2c2ccc(F)cc2F)cc1 (centres unmarked) [Example 3, 1-(4-aminosulphonylphenyl)-5-(2,4-difluorophenyl)-4,5-dihydro-3-trifluoro methyl-1H-pyrazole]
Ulcerogenic effects (in words) (gastric ulcers in rats; in vivo): not to have ulcerogenic effects, even at very high doses
Maximum non-Ulcerogenic dose (gastric ulcers in rats; cold stress): >80 mg/kg
Inhibition of secondary inflammation (anti-arthritic activity) [1]: 71%
inhibition at 40 mg/kg ([2]; rat, dose 40 mg/kg po): 0%
ED50 ([2]; rat, po): > 40 mg/kg
inhibition at 40 mg/kg ([3]; rat, dose 40 mg/kg po): 92%
ED50 ([3]; rat, po): 36 mg/kg
% Activity, analgesic activity against hyperalgesia by thermal stimulus [4]: 100%
ED50 [4]: 0.2 mg/kg

SMILES: Cc1cnc(NC(=O)C2=C(O)c3ccccc3S(=O)(=O)N2C)s1 [Meloxicam]
inhibition at 40 mg/kg ([2]; Rattus norvegicus, po): 65%
inhibition at 40 mg/kg ([3]; Rattus norvegicus, po): 97%

SMILES: COc1ccc2cc(CCC(C)=O)ccc2c1 [Nabumetone]
inhibition at 40 mg/kg ([2]; rat, dose 40 mg/kg po): 0%
ED50 ([2]; rat, po): > 40 mg/kg
inhibition at 40 mg/kg ([3]; rat, dose 40 mg/kg po): 93%
ED50 ([3]; rat, po): 110 mg/kg
% Activity, analgesic activity against hyperalgesia by thermal stimulus [4]: 95%
ED50 [4]: 2.1 mg/kg

SMILES: CS(=O)(=O)Nc1ccc([N+](=O)[O-])cc1Oc1ccccc1 [Nimesulide]
% Activity, analgesic activity against hyperalgesia by thermal stimulus [4]: 97%
ED50 [4]: 1 mg/kg

SMILES: CN1C(C(=O)Nc2ccccn2)=C(O)c2ccccc2S1(=O)=O [Piroxicam]
Ulcerogenic effects (in words) (gastric ulcers in rats; in vivo): exhibited ulcerogenic effects at very low doses
Maximum non-Ulcerogenic dose (gastric ulcers in rats; cold stress): 1.7 mg/kg

Source: patent publication USRE38963E1, “Pyrazoline derivatives, their preparation and application as medicaments” (Laboratorios del Dr. Esteve, priority 1998, dated 2006)
